The source of these data is ChEMBL document CHEMBL4715716, “Discovery of novel non-steroidal reverse indole mineralocorticoid receptor antagonists” (Bioorg Med Chem Lett, 2016).

Holding throughout (type): ADME, organism-based
Data set [1] in a line: Half life in rat at 1 mg.kg, iv or 2 mg/kg, po by LC/MS/MS analysis. The following applies: in vivo.
Data set [2] in a line: Dose normalized AUC in rat at 2 mg/kg, po by LC/MS/MS analysis. The following applies: in vivo.
Data set [3] in a line: Clearance in rat at 1 mg/kg, iv or 2 mg/kg, po by LC/MS/MS analysis. The note with it: in vivo.
The nature of data set [4]: Oral bioavailability in rat at 2 mg/kg by LC/MS/MS analysis. The note with it: in vivo.
The nature of data set [5]: Volume of distribution at steady state in rat at 1 mg/kg, iv or 2 mg/kg, po by LC/MS/MS analysis. The note with it: in vivo, read-out: Vdss.

The term half-life denotes the time in which the quantity being followed falls by half. One may read the bioavailability as the share of a dose that reaches the circulation, judged against a reference dose that is usually intravenous. On to `CC[C@](CO)(c1ccc(Cl)cc1)n1ccc2c(NS(C)(=O)=O)cccc21`, for which the half-life in data set [1] is 1.5 h. This molecule had an AUC/dose in data set [2] of 0.67 µM·kg·h/mg. Further, the clearance in data set [3] is 41 mL/min/kg. For the same molecule, in data set [4], the bioavailability was 65%. In addition, in data set [5], the Vd is 4.1 L/kg.

In data set [1], `CC[C@](C(=O)NC)(c1ccc(Cl)cc1)n1ccc2c(NS(C)(=O)=O)cccc21` had a half-life of 0.6 h. This molecule displayed an AUC/dose in data set [2] of 0.13 µM·kg·h/mg. For the same molecule, in data set [3], the clearance turned out to be 67 mL/min/kg. The bioavailability in data set [4] is 21%. Moreover, the Vd in data set [5] stood at 2.8 L/kg.
